Patent US20090203685A1, “ANTI-PROLIFERATIVE COMPOUNDS FROM A 3-ARYL-COUMARINE OR 3-ARYL-QUINOLIN-2-ONE AND USES THEREOF” (EOS (ETHICAL ONCOLOGY SCIENCE) S.P.A., priority 2006, published 2009)

Experiments:
U937 cells = assay: Proliferation test ViaLight HS, U937 cells (Example 8); format: cell-based, human; conditions: Homo sapiens, U-937, 72 h, 72 h incubation; range = multiple experiments, otherwise individual experiments
Description: 2C Proliferation test ViaLight® HS High Sensitivity Cytotoxicity and Cell Proliferation BioAssay Kit
This protocol allows the determination of the cytostatic and cytotoxic activities of compounds to be tested on mammalian cells in culture and was carried out essentially according to the manufacturer's recommendations.
Cells are suspended in 15 mL of their respective media and are enumerated. They are then diluted in their media in order to obtain: • 2500 cells per 90 μL per well for MRC5 cells • 5000 cells per 90 μL per well for all other cell lines. Cells are then seeded in a 96 well plate, and incubated at least 4 hours in the incubator at 37° C. in 5% CO2.
The molecules to be tested are diluted in DMEM with DMSO in order to obtain the following dilutions: • dilution at 250 μM/1% DMSO • dilution at 50 μM/1% DMSO • dilution at […] • dilution at 2 μM/1% DMSO • dilution at 400 nM/1% DMSO • dilution at 80 nM/1% DMSO For each well comprising 90 μL of cell suspension, 10 μL of a solution of the compound to be tested is added, with the 6 different concentrations. The plate is then incubated during 72 hours. One control plate is contacted with 10 μL of DMEM 1% DMSO, without compound to be tested. 50 μL of lysis buffer (test Vialight® lysis buffer) is added in each well of the control plate and the plate is incubated 10 minutes under hood.
Then, 100 μL of test buffer (test Vialight® test buffer) is added in each well and the control plate is incubated during 2 minutes. The luminescence is read in each well. The mean luminescence for each type of cells is called T0.
After the 72 h incubation, in order to determine the viability, 50 μL of lysis buffer (test Vialight® lysis buffer) is added in each well of the plates and the plates are incubated 10 minutes under hood.
Then, 100 μL of test buffer (test Vialight® test buffer) is added in each well and the plates are incubated during 2 minutes. The luminescence is read in each well. For each type of cell, the mean luminescence in the well not containing the compound is called C72 and the mean luminescence in well containing a given concentration of a compound to be tested is called T72. For each dilution (concentration of compound to be tested), T0 and T72 values are compared.
The graph is plotted for the different concentrations of compound and • GI50 (50% of growth inhibitory) is determined, this is the dose producing 50% of cell growth (intersection at Y=50); • TGI (total growth inhibitory) is determined on the graph, this is the dose producing the total arrest of the cell growth (intersection at Y=0); and • LC50 (50% of lethal concentration) is determined, this is the dose producing the death of 50% of the cells (intersection at Y=−50).
Following the protocol described in Example 2C, different compounds according to the invention have been tested for their cytostatic and cytotoxic activities on mammalian cells in culture (specifically U937 cells).
The GI50 (50% of growth inhibitory) has been determined for all the following compounds, i.e. the dose producing 50% of cell growth inhibition.
Where the GI50 provided is in the form of a range, it means that multiple experiments, whose results fall within the range indicated, were performed. Otherwise, results of individual experiments are provided.

[1] = Viability (propidium iodide staining), MRC5; format: cell-based; conditions: human, MRC5 non-transformed fibroblasts, 500 nM
Description: (§1) Propidium iodide (PI) cannot normally cross the cell membrane; it is thus excluded by viable cells but not from dying or dead cells, having a damaged membrane, where it intercalates into double-stranded nucleic acids and fluoresces when excited at 488 nm.
(§2) The cells are pelleted by gentle centrifugation 1200 rpm/5 min/4° C., then the supernatant is discarded and replaced by 1 mL of fresh medium. One hundred microliters of propidium iodide (40 μg/mL) are added to 400 μL of the cell suspension in a FACS tube and viability is measured by flow cytometry as the percentage of cells whose fluorescence recorded on FL-3 channel is comprised between 0 and 2.
(§3) Viability and cell cycle profile, tested with compound (01), at 500 nM: […]

MRC5 [2] = assay: Viability (propidium iodide staining), MRC5; format: cell-based; conditions: 500 nM
Description: as §1, §2, §3

[3] = Viability (propidium iodide staining), PC3; format: cell-based; conditions: human, PC3 cells (prostate), 500 nM
Description: as §1, §2, §3

[4] = Viability (propidium iodide staining), CEM; format: cell-based; conditions: human, CEM cells (lymphoid), 500 nM
Description: as §1, §2, §3

[5] = Viability (propidium iodide staining), Jurkat; format: cell-based; conditions: human, Jurkat cells, 500 nM
Description: as §1, §2, §3

MRC5 [6] = assay: Cell cycle analysis, MRC5; format: cell-based; conditions: 500 nM
Description: (§4) The cells are pelleted by gentle centrifugation 1200 rpm/5 min/4° C., then the supernatant is discarded and the cells are fixed with 1 mL of PBS/Ethanol 70% overnight at −20° C. The tubes are then centrifuged during 5 minutes at 1200 rpm and the supernatant is removed. The pellet is then re-suspended in 450 μL of PBS before 50 μL of RNAse (1 mg/mL) and 5 μL of propidium iodide (2 mg/mL) are added. Each tube is left 30 minutes at 37° C. and immediately analysed by flow cytometry after incubation.
(§5) A biparametric dot plot representation FL3 peak vs FL3 integer is plotted and the cells located on the diagonal are gated and analysed on a histogram representing the number of cells as a function of the FL3 peak.
(§6) To assess the relative position of cursors defining relative proportion of cells in subG1, G1, S or G2 phase of the cell cycle, G1 and G2 peaks are to be defined first:
(§7) The G1 peak is defined as the major peak in absence of treatment (generally X=200);
(§8) The G2 peak is centered on the value which is twice the value of the G1 peak (generally X=400).
(§9) Cells in subG1 phase are plotted in the part of the histogram preceding the G1 peak (generally X<200) and cells in S phase are enclosed in the area between the G1 and G2 peaks.
(§10) On this graphic, subG1, G1, S and G2/M phases of the cell cycle can thus be defined.
as §3

NCI-H460 = assay: Cell cycle analysis, NCI-H460; format: cell-based, human; conditions: 500 nM
Description: as §4, §5, §6, §7, §8, §9, §10, §3

A375 = assay: Cell cycle analysis, A375; format: cell-based; conditions: 500 nM
Description: as §4, §5, §6, §7, §8, §9, §10, §3

CEM = assay: Cell cycle analysis, CEM; format: cell-based; conditions: 500 nM
Description: as §4, §5, §6, §7, §8, §9, §10, §3

[7] = tested on: lymphoid and myeloid tumor cells; assay: Viability and cell cycle profile, conclusion for lymphoid and myeloid tumor cells; format: cell-based; conditions: 500 nM; apoptotic cell cycle profile
Description: as §1, §2, §4, §3

[8] = tested on: prostate and lung tumor cells; assay: Viability and cell cycle profile, conclusion for prostate and lung tumor cells; format: cell-based; conditions: 500 nM; cell cycle arrest at entry into mitosis
Description: as §1, §2, §4, §3

GI50 (U937 cells): 59 to 200 nM
SMILES: COc1cc(NC(=S)NC(=O)/C=C/c2ccco2)ccc1-c1cc2ccccc2oc1=O [Compound 01, (2E)-3-(2-furyl)-N-({[3-methoxy-4-(2-oxo-2H-chromen-3-yl)phenyl]amino}carbonothioyl)acrylamide]
viability at 48 h, 0.5 µM ([1]; 48 h): 94%
viability at 72 h, 0.5 µM ([1]; 72 h): 89%
Effect on control non-transformed cells (MRC5) (MRC5 [2]): unaffected
viability at 48 h, 0.5 µM ([3]; 48 h): 92%
viability at 72 h, 0.5 µM ([3]; 72 h): 90%
viability at 48 h, 0.5 µM ([4]; 48 h): 10%
viability at 72 h, 0.5 µM ([4]; 72 h): 2%
viability at 48 h, 0.5 µM ([5]; 48 h): 4%
viability at 72 h, 0.5 µM ([5]; 72 h): 1%
Cell cycle profile - 72 h (MRC5 [6]): G2/M accumulation
Cell cycle profile - 72 h (NCI-H460; G2/M phase fraction): G2/M accumulation
Cell cycle profile - 72 h (NCI-H460; sub-G1 fraction): Strong sub-G1
Cell cycle profile - 72 h (A375; G2/M phase fraction): G2/M accumulation
Cell cycle profile - 72 h (A375; sub-G1 fraction): Strong sub-G1
Cell cycle profile - 72 h (CEM): Strong sub-G1
Effect on lymphoid and myeloid tumor cells [7]: cytotoxic effect
Effect on prostate and lung tumor cells [8]: cytostatic effect
